Data published in US20260231954A1, “PESTICIDAL ENZYMES FOR USE ON NEMATODES, INSECTS, AND MOLLUSKS” (priority 2023, published 2026).

Experiments:
[1] = test system: Btk resistant Diamondback moth; test: Diet-surface overlay (DSO) bioassay on Btk resistant Diamondback moth; type: in vivo, Plutella xylostella; settings: number of individuals, n = 32, 7 days
Method: (§1) Diet-surface overlay bioassays are conducted with artificial diet mixes without antibiotics in 1.5 cm^2 cell bioassay trays(s). Artificial diets are commercially available from Southland Products Inc. Diets were prepared by dispersing 0.5 mL of molten diet to each 1.5 cm^2 cell. After solidification, 0.1 mL enzyme treatments were dispersed on top of diet in each cell and the tray was gently rocked in an orbital shaker to spread the liquid uniformly over the diet surface. Trays were placed under clean airflow until the surface of each cell was uniformly dried. One or two 16-cell sections were used per treatment (the number in larvae treated was 16 or 32).
(§2) One healthy first instar larva was placed into each treatment cell, each 16-cell section was covered with a re-sealable lid and incubated at 27° C. and light-dark period of 16:8 hrs. After 7 days, and according to the species, the number of individuals in the following developmental categories was recorded.
(§3) Diamondback moth (Plutella xylostella): Dead Larva (lack of movement), Larva Stage I (≤50% relative size), Larva Stage II (100% relative size, full size), Early Pupa (light green color), Late Pupa (light-dark brown color), and Adult.
(§4) Negative/untreated controls were treated with filtered water and positive controls were treated with lethal doses of Bacillus thuringiensis subsp. Kurstaki (Btk) spores at 1000 ppm.
However, both neutral proteases reduced the number of individuals reaching adult stage.
The effect of lipase (10× enzyme rate) and free lipases were tested on a Diamondback Moth Btk resistant strain. Free Lipases from Burkholderia cepacia (Bc) and Pseudomonas fluorescens (Pf) were tested along with Lipase (SEQ ID NO: 76) and the results are shown below in Table 45.

[2] = test system: soybean cyst nematode (SCN); test: SCN reproduction after application of enzyme or recombinant strain to soil; type: in vivo, Heterodera glycines; settings: Table 33; for % Comparison to Control: first figure, water control = 100%
Method: To determine the efficacy of nematicidal enzymes applied to soil, a controlled environment trial was performed with 7-day old soybean plants (variety 2830E3) grown in pots. Enzymes were produced as described in Example 2. Prior to inoculation, 0.5 mL of neutral protease (SEQ ID NO: 127), esterase B (SEQ ID NO: 89), or chitinase 19F (SEQ ID NO: 182) free enzyme solution was applied to the soil around the base of each plant, or 0.5 mL of water was applied for the control (30 plants per treatment). Then, hatched SCN juveniles were applied to the soil around each plant as described in Example 2, and three weeks later, cysts per gram of root tissue was determined as described in Example 2. The data was analyzed as in Example 2 and appears in Tables 33 and 34.
To determine the efficacy of recombinant strains applied to soil, a controlled environment trial was performed as described in Example 18 above (Reduction of soybean cyst nematode reproduction by enzymes applied to soil), with the exception that a recombinant strain expressing neutral protease (SEQ ID NO: 127) was applied instead of a free enzyme solution. The recombinant strain was produced as in Example 3, and the treatment applied to soil as a whole cell broth.

Meloidogyne incognita = test: Root gall index of soybeans inoculated with Meloidogyne incognita after seed treatment (greenhouse); type: in vivo; settings: for % Comparison to Control: first figure, base seed treatment control = 100%
Method: Nematicidal neutral protease (SEQ ID NO: 127) was produced by fermentation in Bacillus subtilis. The enzyme was cloned into Bacillus expression plasmid p1797 with isopropyl β-d-1-thiogalactopyranoside (IPTG)-inducible expression. The plasmid was transformed into B. subtilis, and this strain was grown in rich media until an optical density (OD) of 0.2-0.5 was reached. Then, enzyme expression was induced by addition of 1 mM IPTG. Following the culture harvest, cells were removed by filtration through a […] filter. Culture filtrate containing secreted protease was then used for seed treatment. Bacillus subtilis fermentation filtrate expressing neutral protease was mixed directly into a seed treatment slurry containing colorant and Peridiam® 1006 […] at a rate of 2 fl oz per unit of seed and coated onto Bossier variety soybean seed.
To investigate the effects of neutral protease on galling due to root knot nematode infestation, treated seeds were planted in soil in cone-tainers in a greenhouse. Seven days after planting, each cone-tainer was inoculated with 1250 eggs from the Dick Meloidogyne incognita population. Eight weeks post-inoculation, roots were excavated and washed. Root galling was visually rated on a gall index (GI) scale of 1-5 (1=<10% GI; 2=11-20%, 3=21-30%, 4=31-40%, 5=>40% GI). Fifteen plants were evaluated per treatment and their average root gall ratings were recorded.

[3] = test system: soybean cyst nematode (SCN, Heterodera glycines); test: Soybean cyst nematode reproduction on soybean after seed treatment, controlled environment (cysts per gram of root tissue or per plant); type: in vivo
[4] = test system: Diamondback moth (Plutella xylostella); test: Diet-surface overlay (DSO) bioassay on Diamondback moth; type: in vivo; settings: number of individuals, n = 16
Method: as §1, §2, §3, §4

Substance: Neutral protease (SEQ ID NO: 127): Bacillus sp. B16 neutral protease produced by fermentation in Bacillus subtilis; culture filtrate containing the secreted enzyme
- Dead Larva ([1]; Table 42, proteases at 10x rate): 4
- Adult ([1]; Table 42): 0
- Early Pupa ([1]; Table 42): 6
- Larva Stage I ([1]; Table 42): 0
- Larva Stage II ([1]; Table 42): 0
- Late Pupa ([1]; Table 42): 22
- % Comparison to Control (figure in parentheses) ([2]; change vs water control): −32%
- % Comparison to Control [2]: reduced SCN reproduction
- % Comparison to Control ([2]; listed as Neutral protease free enzyme (SEQ ID NO: 127)): 68%
- Average cysts per g of root tissue ([2]; free enzyme 0.5 mL/plant to soil, soybean 2830E3, 3 weeks): 35.7 cysts per g of root tissue
- % Comparison to Control (figure in parentheses) (Meloidogyne incognita; Table 26, change vs base control): −26%
- % Comparison to Control (Meloidogyne incognita; Table 26): reduction of average visual gall rating
- % Comparison to Control (Meloidogyne incognita; Table 26, listed as Neutral protease seed treatment (SEQ ID NO: 127)): 74%
- Average root gall rating (Meloidogyne incognita; gall index scale of 1-5, seed treatment 2 fl oz per unit of seed, Bossier soybean, 8 weeks post-inoculation, 15 plants): 3.5
- Average cysts per g of root tissue ([3]; Table 11, free enzyme seed treatment 2 fl. oz. per unit of seed (ILEVO 0.15 mg active ingredient per seed), soybean P18A98X, 3 weeks after inoculation): 20.1 cysts per g of root tissue
- Average cysts per g of root tissue ([3]; Table 14, seed treated with whole cell broth, soybean P18A98X): 40.3 cysts per g of root tissue
- % Comparison to Control (figure in parentheses) ([3]; Table 38, change vs base control, liquid 2 fl oz/unit, ILEVO): −42%
- Average cysts per g of root tissue ([3]; Table 38, liquid formulation 2 fl oz/unit, ILEVO positive control, soybean 2830E3): 208.8 cysts per g of root tissue
- Dead Larva ([4]; Table 41, proteases, after 7 days, rate in U/mL diet column): 2
- Adult ([4]; Table 41, 7 days): 0
- Early Pupa ([4]; Table 41, 7 days): 8
- Larva Stage I ([4]; Table 41, 7 days): 0
- Larva Stage II ([4]; Table 41, 7 days): 0
- Late Pupa ([4]; Table 41, 7 days): 6
